Tests used:
[1] = tested on: lambsquarters; assay: Test Example 4: herbicidal effect by soil treatment (Table 19, symbol O); format: in vivo, lambsquarters (Chenopodium album)
Outline: (§1)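 In this soil treatment, the formulated compound reached the seeds only through the soil: seeds were buried about 1.5 cm deep in sterilized diluvial soil, then the diluted emulsion was sprayed over the surface. After three weeks at 25° C. to 30° C. in a greenhouse, effects were graded on criteria from an earlier test.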

[2] = tested on: chickweed; assay: Test Example 4: herbicidal effect by soil treatment (Table 19, symbol P); format: in vivo, common chickweed (Stellaria media)
Outline: as §1

[3] = tested on: late watergrass; assay: Test Example 2: herbicidal activity, application during weed generation under submerged conditions (Table 17, symbol A); format: in vivo, late watergrass (Echinochloa oryzicola); conditions: application during weed generation, submerged conditions
Outline: (§2)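 Effect on each weed is rated three weeks post-treatment, using the same scoring criteria as the preceding test. Plants grow from mixed-sown seed in flooded alluvial soil (4 cm water) at 25° C. to 30° C., and are treated at one to two leaves with diluted emulsion dropped onto the water.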

[4] = tested on: barnyard grass; assay: Test Example 4: herbicidal effect by soil treatment (Table 19, symbol H); format: in vivo, barnyard grass (Echinochloa crus-galli)
Outline: as §1

[5] = tested on: blackgrass; assay: Test Example 5: herbicidal effect by foliage application, plastic box (Table 20, symbol J); format: in vivo, blackgrass (Alopecurus myosuroides); conditions: foliage application, three weeks after application
Outline: (§3)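 Plants were sown into sterilized diluvial soil under about 1.5 cm cover and kept in a greenhouse at 25° C. to 30° C. Fourteen days on, foliage received an even spray of the diluted emulsion. Herbicidal or crop effect was judged three weeks afterwards.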

[6] = tested on: blackgrass; assay: Test Example 4: herbicidal effect by soil treatment (Table 19, symbol J); format: in vivo, blackgrass (Alopecurus myosuroides)
Outline: as §1

[7] = tested on: velvetleaf; assay: Test Example 4: herbicidal effect by soil treatment (Table 19, symbol M); format: in vivo, velvetleaf (Abutilon theophrasti)
Outline: as §1

[8] = tested on: wild oat; assay: Test Example 4: herbicidal effect by soil treatment (Table 19, symbol I); format: in vivo, wild oat (Avena fatua)
Outline: as §1

[9] = tested on: persian speedwell; assay: Test Example 5: herbicidal effect by foliage application, plastic box (Table 20, symbol R); format: in vivo, Persian speedwell (Veronica persica); conditions: foliage application, three weeks after application
Outline: as §3

[10] = tested on: Italian ryegrass; assay: Test Example 4: herbicidal effect by soil treatment (Table 19, symbol K); format: in vivo, Italian ryegrass (Lolium multiflorum)
Outline: as §1

[11] = tested on: Italian ryegrass; assay: Test Example 5: herbicidal effect by foliage application, plastic box (Table 20, symbol K); format: in vivo, Italian ryegrass (Lolium multiflorum); conditions: foliage application, three weeks after application
Outline: as §3

[12] = tested on: barnyard grass; assay: Test Example 3: herbicidal effect by foliage application, Wagner pot (Table 18, symbol H); format: in vivo, barnyard grass (Echinochloa crus-galli)
Outline: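 Plants were sown in alluvial soil held under 0.1–0.5 cm standing water and grown 14 days in a greenhouse at 25–30 °C. An emulsifiable formulation, water-diluted to the set dose, was then sprayed onto the foliage, and effects were scored three weeks later using previously defined criteria.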

[13] = tested on: velvetleaf; assay: Test Example 5: herbicidal effect by foliage application, plastic box (Table 20, symbol M); format: in vivo, velvetleaf (Abutilon theophrasti); conditions: foliage application, three weeks after application
Outline: as §3

[14] = tested on: Japanese bulrush; assay: Test Example 2: herbicidal activity, application during weed generation under submerged conditions (Table 17, symbol B); format: in vivo, Japanese bulrush (Schoenoplectus juncoides); conditions: application during weed generation, submerged conditions
Outline: as §2

[15] = tested on: green foxtail; assay: Test Example 4: herbicidal effect by soil treatment (Table 19, symbol G); format: in vivo, green foxtail (Setaria viridis)
Outline: as §1

[16] = tested on: chickweed; assay: Test Example 5: herbicidal effect by foliage application, plastic box (Table 20, symbol P); format: in vivo, common chickweed (Stellaria media); conditions: foliage application, three weeks after application
Outline: as §3

[17] = tested on: redroot pigweed; assay: Test Example 5: herbicidal effect by foliage application, plastic box (Table 20, symbol N); format: in vivo, redroot pigweed (Amaranthus retroflexus); conditions: foliage application, three weeks after application
Outline: as §3

[18] = amount of applied herbicide 320 g/ha
[19] = amount of applied herbicide 80 g/ha

Row | Compound | O: lambsquarters, herbicidal effect grade [1, 18] | P: chickweed, herbicidal effect grade [2, 18] | herbicidal effect rating, A: late watergrass ([3]; AAH 320 g/ha) | H: barnyard grass, herbicidal effect grade [4, 18] | J: blackgrass, herbicidal effect grade ([5]; 320 g/ha) | J: blackgrass, herbicidal effect grade [6, 18] | M: velvetleaf, herbicidal effect grade [7, 18] | I: wild oat, herbicidal effect grade [8, 18] | R: persian speedwell, herbicidal effect grade ([9]; 320 g/ha) | K: Italian ryegrass, herbicidal effect grade [10, 18] | K: Italian ryegrass, herbicidal effect grade ([11]; 320 g/ha) | herbicidal effect on barnyard grass (H) ([12]; 320 g/ha) | M: velvetleaf, herbicidal effect grade ([13]; 320 g/ha) | herbicidal effect rating, B: Japanese bulrush ([14]; AAH 320 g/ha) | G: green foxtail, herbicidal effect grade [15, 18] | P: chickweed, herbicidal effect grade ([16]; 320 g/ha) | N: redroot pigweed, herbicidal effect grade ([17]; 320 g/ha) | further results
1 | CCCC(=O)Oc1c(C)nn(C)c(=O)c1-c1c(-c2ccccc2OCC)sc2cc(OC)ccc12 [3-071] | 3 (Herbicidal rate of 40% or more and less than 70%) | 5 (Herbicidal rate of 90% or more (almost completely withered)) | 5 (Herbicidal rate of 90% or more (almost completely withered)) | 3 (Herbicidal rate of 40% or more and less than 70%) | 5 (Herbicidal rate of 90% or more (almost completely withered)) | 4 (Herbicidal rate of 70% or more and less than 90%) | 1 (Herbicidal rate of 5% or more and less than 20%) | 3 (Herbicidal rate of 40% or more and less than 70%) | 5 (Herbicidal rate of 90% or more (almost completely withered)) | 2 (Herbicidal rate of 20% or more and less than 40%) | 4 (Herbicidal rate of 70% or more and less than 90%) | 5 (Herbicidal rate of 90% or more (almost completely withered)) | 5 (Herbicidal rate of 90% or more (almost completely withered)) | 5 (Herbicidal rate of 90% or more (almost completely withered)) | 4 (Herbicidal rate of 70% or more and less than 90%) | 5 (Herbicidal rate of 90% or more (almost completely withered)) | 5 (Herbicidal rate of 90% or more (almost completely withered)) | 
2 | CCOc1cc(F)ccc1-c1sc2cc(OC)ccc2c1-c1c(O)c(C)nn(C)c1=O [3-078] |  |  |  |  |  |  |  |  |  |  |  |  |  |  |  |  |  | O: lambsquarters, herbicidal effect grade [1, 19]: 4 (Herbicidal rate of 70% or more and less than 90%); P: chickweed, herbicidal effect grade [2, 19]: 5 (Herbicidal rate of 90% or more (almost completely withered)); herbicidal effect rating, A: late watergrass ([3]; AAH 80 g/ha): 1 (Herbicidal rate of 5% or more and less than 20%); H: barnyard grass, herbicidal effect grade [4, 19]: 0 (Herbicidal rate of 5% or less (almost no effect)); J: blackgrass, herbicidal effect grade ([5]; 80 g/ha): 4 (Herbicidal rate of 70% or more and less than 90%); J: blackgrass, herbicidal effect grade [6, 19]: 5 (Herbicidal rate of 90% or more (almost completely withered)); M: velvetleaf, herbicidal effect grade [7, 19]: 0 (Herbicidal rate of 5% or less (almost no effect)); I: wild oat, herbicidal effect grade [8, 19]: 0 (Herbicidal rate of 5% or less (almost no effect)); R: persian speedwell, herbicidal effect grade ([9]; 80 g/ha): 5 (Herbicidal rate of 90% or more (almost completely withered)); K: Italian ryegrass, herbicidal effect grade [10, 19]: 3 (Herbicidal rate of 40% or more and less than 70%); K: Italian ryegrass, herbicidal effect grade ([11]; 80 g/ha): 4 (Herbicidal rate of 70% or more and less than 90%); herbicidal effect on barnyard grass (H) ([12]; 80 g/ha): 5 (Herbicidal rate of 90% or more (almost completely withered)); M: velvetleaf, herbicidal effect grade ([13]; 80 g/ha): 5 (Herbicidal rate of 90% or more (almost completely withered)); herbicidal effect rating, B: Japanese bulrush ([14]; AAH 80 g/ha): 5 (Herbicidal rate of 90% or more (almost completely withered)); G: green foxtail, herbicidal effect grade [15, 19]: 0 (Herbicidal rate of 5% or less (almost no effect)); P: chickweed, herbicidal effect grade ([16]; 80 g/ha): 5 (Herbicidal rate of 90% or more (almost completely withered)); N: redroot pigweed, herbicidal effect grade ([17]; 80 g/ha): 5 (Herbicidal rate of 90% or more (almost completely withered))
3 | CCCC(=O)Oc1c(C)nn(C)c(=O)c1-c1c(-c2ccc(F)cc2OCC)sc2cc(OC)ccc12 [3-079] | 3 (Herbicidal rate of 40% or more and less than 70%) | 4 (Herbicidal rate of 70% or more and less than 90%) | 5 (Herbicidal rate of 90% or more (almost completely withered)) | 0 (Herbicidal rate of 5% or less (almost no effect)) | 4 (Herbicidal rate of 70% or more and less than 90%) | 2 (Herbicidal rate of 20% or more and less than 40%) | 3 (Herbicidal rate of 40% or more and less than 70%) | 0 (Herbicidal rate of 5% or less (almost no effect)) | 5 (Herbicidal rate of 90% or more (almost completely withered)) | 0 (Herbicidal rate of 5% or less (almost no effect)) | 4 (Herbicidal rate of 70% or more and less than 90%) | 5 (Herbicidal rate of 90% or more (almost completely withered)) | 5 (Herbicidal rate of 90% or more (almost completely withered)) | 5 (Herbicidal rate of 90% or more (almost completely withered)) | 1 (Herbicidal rate of 5% or more and less than 20%) | 5 (Herbicidal rate of 90% or more (almost completely withered)) | 4 (Herbicidal rate of 70% or more and less than 90%) | 
4 | COc1ccc2c(-c3c(O)c(C)nn(C)c3=O)c(-c3ccc4c(c3)OCCO4)sc2c1 [3-082] | 0 (Herbicidal rate of 5% or less (almost no effect)) | 4 (Herbicidal rate of 70% or more and less than 90%) | 2 (Herbicidal rate of 20% or more and less than 40%) | 0 (Herbicidal rate of 5% or less (almost no effect)) | 1 (Herbicidal rate of 5% or more and less than 20%) | 0 (Herbicidal rate of 5% or less (almost no effect)) | 0 (Herbicidal rate of 5% or less (almost no effect)) | 0 (Herbicidal rate of 5% or less (almost no effect)) | 5 (Herbicidal rate of 90% or more (almost completely withered)) | 0 (Herbicidal rate of 5% or less (almost no effect)) | 3 (Herbicidal rate of 40% or more and less than 70%) | 5 (Herbicidal rate of 90% or more (almost completely withered)) | 3 (Herbicidal rate of 40% or more and less than 70%) | 1 (Herbicidal rate of 5% or more and less than 20%) | 0 (Herbicidal rate of 5% or less (almost no effect)) | 5 (Herbicidal rate of 90% or more (almost completely withered)) | 5 (Herbicidal rate of 90% or more (almost completely withered)) | 
5 | CCCC(=O)Oc1c(C)nn(C)c(=O)c1-c1c(-c2ccc3c(c2)OCCO3)sc2cc(OC)ccc12 [3-083] | 3 (Herbicidal rate of 40% or more and less than 70%) | 5 (Herbicidal rate of 90% or more (almost completely withered)) | 2 (Herbicidal rate of 20% or more and less than 40%) | 3 (Herbicidal rate of 40% or more and less than 70%) | 0 (Herbicidal rate of 5% or less (almost no effect)) | 0 (Herbicidal rate of 5% or less (almost no effect)) | 0 (Herbicidal rate of 5% or less (almost no effect)) | 0 (Herbicidal rate of 5% or less (almost no effect)) | 5 (Herbicidal rate of 90% or more (almost completely withered)) | 0 (Herbicidal rate of 5% or less (almost no effect)) | 1 (Herbicidal rate of 5% or more and less than 20%) | 4 (Herbicidal rate of 70% or more and less than 90%) | 3 (Herbicidal rate of 40% or more and less than 70%) | 3 (Herbicidal rate of 40% or more and less than 70%) | 4 (Herbicidal rate of 70% or more and less than 90%) | 5 (Herbicidal rate of 90% or more (almost completely withered)) | 3 (Herbicidal rate of 40% or more and less than 70%) | 

Source: patent US20230085307A1, “PYRIDAZINONE COMPOUND AND HERBICIDE” (NISSAN CHEMICAL CORPORATION, priority 2019, published 2023)
